In ChEMBL document CHEMBL1795228, “Air to lung partition coefficients for volatile organic compounds and blood to lung partition coefficients for volatile organic compounds and drugs” (Eur J Med Chem, 2008):

Experiment: In-vivo blood to lung partition coefficients of the compound, logP(lung) in rat
Type: ADME
Conditions: not given

Going from COc1ccc(CCCn2ncc3c2nc(N)n2nc(-c4ccco4)nc32)cc1 to CN(C)CCCN1c2ccccc2Sc2ccc(Cl)cc21 [CHLORPROMAZINE], the “logP(lung)” value rises from 0.62 to 1.81.

First: C=CC(=O)O [ACRYLIC ACID]
Second: O=C(CCCN1CCC(O)(c2ccc(Cl)cc2)CC1)c1ccc(F)cc1 [HALOPERIDOL]
The “logP(lung)” value of the first is lower: 0.14 for the first, 1.73 for the second.

Compared with CN(C)CCCN1c2ccccc2CCc2ccc(Cl)cc21 [CLOMIPRAMINE], CCc1cc2c(s1)N(C)C(=O)CN=C2c1ccccc1Cl [CLOTIAZEPAM] is lower in “logP(lung)” value: 2.16 for the first, 1.04 for the second.

Experiment: In-vitro blood to lung partition coefficients of the compound, logP(lung) (human/rat)
Conditions: not given

Compared with C=C, C=CC=C [BUTADIENE] is lower in “logP(lung)” value: 0.28 for the first, -0.41 for the second.

Going from FC(F)OC(F)(F)C(F)Cl (stereo not drawn) to FC(F)OC(Cl)C(F)(F)F (stereo not drawn) [ISOFLURANE], the “logP(lung)” value falls from 0.21 to 0.

Going from FC(F)(F)CCl to FC(F)(F)C(Cl)Br (stereo not drawn) [HALOTHANE], the “logP(lung)” value falls from 0.2 to -0.11.

CCC(C)(C)C and CCCC(C)C are within 0.2 log units of each other in “logP(lung)” value: 0.37 for the first, 0.29 for the second.

Going from FC(F)(F)c1ccc(Cl)cc1 to Cc1ccccc1C [O-XYLENE], the “logP(lung)” value rises from 0.2 to 0.52.

Going from CCC(C)CC to CCOCC [ETHER], the “logP(lung)” value falls from 0.32 to 0.03.

CC(C)=O [ACETONE] and CCC(C)=O [BUTANONE] are within 0.2 log units of each other in “logP(lung)” value: -0.16 for the first, -0.23 for the second.

[C-]#[O+] [CARBON MONOXIDE] and ClC(Cl)Cl [CHLOROFORM] are within 0.2 log units of each other in “logP(lung)” value: -0.02 for the first, -0.03 for the second.

Going from C1CCCCC1 [CYCLOHEXANE] to C1CC1 [CYCLOPROPANE], the “logP(lung)” value falls from 0.26 to -0.3.

CC [ETHANE] and CO [METHYL ALCOHOL] are within 0.2 log units of each other in “logP(lung)” value: -0.26 for the first, -0.17 for the second.

C#C [ETHYNE] and [He] [HELIUM] are within 0.2 log units of each other in “logP(lung)” value: 0 for the first, 0.02 for the second.

CCCCCCC [HEPTANE] and CCCCCC [HEXANE] are within 0.2 log units of each other in “logP(lung)” value: -0.1 for the first, -0.21 for the second.

Compared with CC(C)CO [ISOBUTANOL], CCCCC [PENTANE] is higher in “logP(lung)” value: -0.32 for the first, -0.01 for the second.

First: COC(F)(F)C(Cl)Cl [METHOXYFLURANE]
Second: FCOC(C(F)(F)F)C(F)(F)F [SEVOFLURANE]
The “logP(lung)” value of the first is lower: -0.08 for the first, 0.31 for the second.

First: CC1CCCC1 [METHYLCYCLOPENTANE]
Second: C1CO1 [OXIRANE]
The “logP(lung)” value of the first is higher: 0.3 for the first, -0.01 for the second.

Going from ClCCl [METHYLENE CHLORIDE] to CC(Cl)(Cl)Cl [TRICHLOROETHANE], the “logP(lung)” value rises from -0.36 to 0.04.

[N-]=[N+]=O [NITROUS OXIDE] and O=O [OXYGEN] are within 0.2 log units of each other in “logP(lung)” value: 0 for the first, -0.04 for the second.

C=CC [PROPENE] and ClC=C(Cl)Cl [TRICHLOROETHYLENE] are within 0.2 log units of each other in “logP(lung)” value: -0.03 for the first, 0.01 for the second.

First: FS(F)(F)(F)(F)F [SULFUR HEXAFLUORIDE]
Second: ClC(Cl)=C(Cl)Cl [TETRACHLOROETHYLENE]
The “logP(lung)” value of the first is lower: 0.03 for the first, 0.67 for the second.

Experiment: In-vitro air to lung partition coefficients of the compound, logK(lung) (human/rat)
Conditions: octanol/water

C=C and C=CC=C [BUTADIENE] are within 0.2 log units of each other in “logK(lung)” value: -0.25 for the first, -0.32 for the second.

Compared with FC(F)OC(F)(F)C(F)Cl (stereo not drawn), FC(F)OC(Cl)C(F)(F)F (stereo not drawn) [ISOFLURANE] is lower in “logK(lung)” value: 0.56 for the first, 0.2 for the second.

FC(F)(F)CCl and FC(F)(F)C(Cl)Br (stereo not drawn) [HALOTHANE] are within 0.2 log units of each other in “logK(lung)” value: 0.34 for the first, 0.46 for the second.

CCC(C)(C)C and CCCC(C)C are within 0.2 log units of each other in “logK(lung)” value: -0.22 for the first, -0.1 for the second.

First: FC(F)(F)c1ccc(Cl)cc1
Second: Cc1ccccc1C [O-XYLENE]
The “logK(lung)” value of the first is lower: 1.63 for the first, 1.94 for the second.

Going from CCC(C)CC to CCOCC [ETHER], the “logK(lung)” value rises from -0.05 to 1.14.

CC(C)=O [ACETONE] and CCC(C)=O [BUTANONE] are within 0.2 log units of each other in “logK(lung)” value: 2.2 for the first, 2.01 for the second.

Going from c1ccccc1 [BENZENE] to [C-]#[O+] [CARBON MONOXIDE], the “logK(lung)” value falls from 1.08 to -1.69.

ClC(Cl)Cl [CHLOROFORM] and COC(F)(F)C(Cl)Cl [METHOXYFLURANE] are within 0.2 log units of each other in “logK(lung)” value: 1.12 for the first, 1.2 for the second.

C=CC(=C)Cl [CHLOROPRENE] and ClC=C(Cl)Cl [TRICHLOROETHYLENE] are within 0.2 log units of each other in “logK(lung)” value: 1.12 for the first, 1.15 for the second.

First: C1CCCCC1 [CYCLOHEXANE]
Second: C1CC1 [CYCLOPROPANE]
The “logK(lung)” value of the first is higher: 0.43 for the first, -0.51 for the second.

Compared with CC [ETHANE], CO [METHYL ALCOHOL] is higher in “logK(lung)” value: -1.28 for the first, 3.24 for the second.

Going from C#C [ETHYNE] to [He] [HELIUM], the “logK(lung)” value falls from -0.06 to -1.98.

Compared with CCCCCCC [HEPTANE], CCCCCC [HEXANE] is lower in “logK(lung)” value: 0.4 for the first, 0 for the second.

Compared with CC(C)CO [ISOBUTANOL], CCCCC [PENTANE] is lower in “logK(lung)” value: 2.6 for the first, -0.3 for the second.

First: CC1CCCC1 [METHYLCYCLOPENTANE]
Second: C1CO1 [OXIRANE]
The “logK(lung)” value of the first is lower: 0.23 for the first, 1.79 for the second.

ClCCl [METHYLENE CHLORIDE] and CC(Cl)(Cl)Cl [TRICHLOROETHANE] are within 0.2 log units of each other in “logK(lung)” value: 0.76 for the first, 0.67 for the second.

Going from [N-]=[N+]=O [NITROUS OXIDE] to O=O [OXYGEN], the “logK(lung)” value falls from -0.37 to -1.62.

Going from C=CC [PROPENE] to FCOC(C(F)(F)F)C(F)(F)F [SEVOFLURANE], the “logK(lung)” value rises from -0.24 to 0.11.

Going from FS(F)(F)(F)(F)F [SULFUR HEXAFLUORIDE] to ClC(Cl)=C(Cl)Cl [TETRACHLOROETHYLENE], the “logK(lung)” value rises from -2.14 to 1.86.

Experiment: In-vitro air to blood partition coefficients of the compound, logK(blood) (human/rat)
Conditions: octanol/water

First: C=C
Second: C=CC=C [BUTADIENE]
The “logK(blood)” value of the first is lower: -0.53 for the first, 0.09 for the second.

FC(F)OC(F)(F)C(F)Cl (stereo not drawn) and FC(F)OC(Cl)C(F)(F)F (stereo not drawn) [ISOFLURANE] are within 0.2 log units of each other in “logK(blood)” value: 0.35 for the first, 0.2 for the second.

Compared with FC(F)(F)CCl, FC(F)(F)C(Cl)Br (stereo not drawn) [HALOTHANE] is higher in “logK(blood)” value: 0.14 for the first, 0.57 for the second.

First: CCC(C)(C)C
Second: CCCC(C)C
The “logK(blood)” value of the first is lower: -0.59 for the first, -0.39 for the second.

FC(F)(F)c1ccc(Cl)cc1 and Cc1ccccc1C [O-XYLENE] are within 0.2 log units of each other in “logK(blood)” value: 1.43 for the first, 1.42 for the second.

Going from CCC(C)CC to CCOCC [ETHER], the “logK(blood)” value rises from -0.37 to 1.11.

CC(C)=O [ACETONE] and CCC(C)=O [BUTANONE] are within 0.2 log units of each other in “logK(blood)” value: 2.36 for the first, 2.24 for the second.

Going from c1ccccc1 [BENZENE] to [C-]#[O+] [CARBON MONOXIDE], the “logK(blood)” value falls from 1.05 to -1.67.

ClC(Cl)Cl [CHLOROFORM] and COC(F)(F)C(Cl)Cl [METHOXYFLURANE] are within 0.2 log units of each other in “logK(blood)” value: 1.15 for the first, 1.28 for the second.

Going from C1CCCCC1 [CYCLOHEXANE] to C1CC1 [CYCLOPROPANE], the “logK(blood)” value falls from 0.17 to -0.21.

Going from CC [ETHANE] to CO [METHYL ALCOHOL], the “logK(blood)” value rises from -1.02 to 3.41.

Compared with C#C [ETHYNE], [He] [HELIUM] is lower in “logK(blood)” value: -0.06 for the first, -2 for the second.

First: CCCCCCC [HEPTANE]
Second: CCCCCC [HEXANE]
The “logK(blood)” value of the first is higher: 0.5 for the first, 0.21 for the second.

Compared with CC(C)CO [ISOBUTANOL], CCCCC [PENTANE] is lower in “logK(blood)” value: 2.92 for the first, -0.29 for the second.

First: CC1CCCC1 [METHYLCYCLOPENTANE]
Second: C1CO1 [OXIRANE]
The “logK(blood)” value of the first is lower: -0.07 for the first, 1.8 for the second.

Going from ClCCl [METHYLENE CHLORIDE] to CC(Cl)(Cl)Cl [TRICHLOROETHANE], the “logK(blood)” value falls from 1.12 to 0.63.

Going from [N-]=[N+]=O [NITROUS OXIDE] to O=O [OXYGEN], the “logK(blood)” value falls from -0.34 to -1.58.

Going from C=CC [PROPENE] to ClC=C(Cl)Cl [TRICHLOROETHYLENE], the “logK(blood)” value rises from -0.21 to 1.14.

First: FCOC(C(F)(F)F)C(F)(F)F [SEVOFLURANE]
Second: FS(F)(F)(F)(F)F [SULFUR HEXAFLUORIDE]
The “logK(blood)” value of the first is higher: -0.2 for the first, -2.17 for the second.

With ClC(Cl)=C(Cl)Cl [TETRACHLOROETHYLENE] the “logK(blood)” value was 1.19.
